Test results taken from US20080124741A1, “Canine Cholecystokinin 1 Receptor Materials And Their Use” (priority 2004, published 2008).
Read-outs that look alike come from different tables or passages of the source.

Tests used:
canine CCK2 receptor = target: T1, canine CCK2 receptor (Canis lupus familiaris, UniProt P30552); assay: competition binding of [125I]-BH-CCK-8S at canine CCK2 receptor; details: for fold higher affinity at the canine CCK2 receptor compared to the canine CCK1 receptor: canine CCK2 over canine CCK1
T1 sequence (P30552 1-453): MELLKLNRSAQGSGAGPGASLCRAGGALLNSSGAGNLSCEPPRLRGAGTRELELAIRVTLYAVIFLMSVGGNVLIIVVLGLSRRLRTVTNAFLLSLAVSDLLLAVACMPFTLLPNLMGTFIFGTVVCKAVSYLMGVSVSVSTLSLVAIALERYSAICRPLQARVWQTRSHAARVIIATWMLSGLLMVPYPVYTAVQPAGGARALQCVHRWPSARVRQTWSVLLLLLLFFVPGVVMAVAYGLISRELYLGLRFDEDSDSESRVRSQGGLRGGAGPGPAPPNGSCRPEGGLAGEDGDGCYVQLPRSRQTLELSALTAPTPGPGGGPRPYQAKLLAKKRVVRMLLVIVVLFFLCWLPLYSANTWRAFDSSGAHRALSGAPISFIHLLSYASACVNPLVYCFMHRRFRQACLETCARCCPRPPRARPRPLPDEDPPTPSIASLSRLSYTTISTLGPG

Canine CCK1: Variant #1 = target: T2, Canine CCK1: Variant #1 (Canis lupus familiaris, UniProt Q5D0K2, G258S/L413V/V400A); assay: competition binding at variant #1 canine CCK1 receptor transiently transfected in HEK cells; details: Canine CCK1 variant #1, transiently transfected in HEK cells, n = 3, ± s.e. mean; for Ki: read-out: pKI (affinity value, -log equilibrium dissociation constant) (converted)
T2 construct: plasmid DNAs containing the respective variant canine CCK1 receptor cDNAs and the wild type cDNA were transiently transfected; expressed in transfected cells; host or cells: HEK-293 cells, transient
T2 sequence (Q5D0K2 1-428 G258S/V400A/L413V): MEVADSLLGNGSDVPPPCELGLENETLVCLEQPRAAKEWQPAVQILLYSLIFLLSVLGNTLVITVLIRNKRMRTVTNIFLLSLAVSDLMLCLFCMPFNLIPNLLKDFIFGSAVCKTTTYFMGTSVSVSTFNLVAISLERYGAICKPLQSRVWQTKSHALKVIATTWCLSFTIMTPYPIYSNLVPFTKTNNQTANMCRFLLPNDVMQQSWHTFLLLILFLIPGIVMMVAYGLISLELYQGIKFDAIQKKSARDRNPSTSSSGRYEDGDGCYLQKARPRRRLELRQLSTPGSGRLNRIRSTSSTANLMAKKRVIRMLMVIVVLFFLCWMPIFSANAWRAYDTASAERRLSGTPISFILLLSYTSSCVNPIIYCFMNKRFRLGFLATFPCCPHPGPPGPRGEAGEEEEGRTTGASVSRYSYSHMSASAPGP

human CCK1 receptor = target: T3, human CCK1 receptor (Homo sapiens, UniProt P32238); assay: competition binding of [125I]-BH-CCK-8S at cloned human CCK1 receptor
T3 construct: expressed in transfected cells
T3 sequence (P32238 1-428): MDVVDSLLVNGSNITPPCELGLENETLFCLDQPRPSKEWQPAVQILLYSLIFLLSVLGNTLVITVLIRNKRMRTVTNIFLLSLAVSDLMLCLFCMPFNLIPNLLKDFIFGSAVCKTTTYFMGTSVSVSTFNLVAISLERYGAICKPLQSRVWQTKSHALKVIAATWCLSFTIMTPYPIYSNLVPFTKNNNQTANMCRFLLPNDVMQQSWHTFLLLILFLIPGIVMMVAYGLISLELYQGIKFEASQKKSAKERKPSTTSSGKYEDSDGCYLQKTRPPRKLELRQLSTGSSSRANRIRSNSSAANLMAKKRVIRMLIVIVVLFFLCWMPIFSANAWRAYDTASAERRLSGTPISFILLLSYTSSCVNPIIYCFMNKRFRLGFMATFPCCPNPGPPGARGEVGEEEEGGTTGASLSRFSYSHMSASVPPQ

canine CCK1 receptor = target: T4, canine CCK1 receptor (Canis lupus familiaris, UniProt Q5D0K2); assay: competition binding of [125I]-BH-CCK-8S at cloned canine CCK1 receptor stably expressed in CHO-K cells
T4 construct: expressed in transfected cells
T4 sequence (Q5D0K2 1-428): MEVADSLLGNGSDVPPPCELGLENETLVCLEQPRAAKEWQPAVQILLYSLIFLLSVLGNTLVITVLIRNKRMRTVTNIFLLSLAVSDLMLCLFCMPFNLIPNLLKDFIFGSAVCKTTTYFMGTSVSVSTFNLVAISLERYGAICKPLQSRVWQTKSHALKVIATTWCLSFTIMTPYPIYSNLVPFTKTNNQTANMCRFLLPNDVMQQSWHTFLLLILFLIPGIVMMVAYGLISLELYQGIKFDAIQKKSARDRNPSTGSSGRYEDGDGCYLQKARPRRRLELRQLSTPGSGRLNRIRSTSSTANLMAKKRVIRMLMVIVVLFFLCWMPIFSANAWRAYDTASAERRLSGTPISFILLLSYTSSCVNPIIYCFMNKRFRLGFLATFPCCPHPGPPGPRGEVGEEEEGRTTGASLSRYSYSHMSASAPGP

Canine CCK1: Wild-type = target: T5, Canine CCK1: Wild-type (Canis lupus familiaris, UniProt Q5D0K2); assay: competition binding at wild-type canine CCK1 receptor transiently transfected in HEK cells; details: n = 3, ± s.e. mean; for Ki: read-out: pKI (affinity value, -log equilibrium dissociation constant) (converted)
T5 construct: The ORF encodes a 428 amino-acid protein; expressed in transfected cells; host or cells: HEK-293 cells, transient
T5 sequence (Q5D0K2 1-428): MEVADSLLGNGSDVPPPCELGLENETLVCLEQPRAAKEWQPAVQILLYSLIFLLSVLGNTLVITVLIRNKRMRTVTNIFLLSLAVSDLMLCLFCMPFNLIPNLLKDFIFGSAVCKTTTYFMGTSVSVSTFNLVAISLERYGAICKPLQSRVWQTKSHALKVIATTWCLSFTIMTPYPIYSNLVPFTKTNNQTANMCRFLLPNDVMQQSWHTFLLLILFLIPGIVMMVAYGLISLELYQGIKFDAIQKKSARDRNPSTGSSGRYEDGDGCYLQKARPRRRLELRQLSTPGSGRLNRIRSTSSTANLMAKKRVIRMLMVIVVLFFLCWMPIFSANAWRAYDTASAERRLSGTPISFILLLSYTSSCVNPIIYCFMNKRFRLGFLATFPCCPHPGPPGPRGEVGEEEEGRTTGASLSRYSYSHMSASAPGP

[1] = target: T6, guinea-pig pancreatic CCK1 receptors (Cavia porcellus, UniProt Q63931); details: guinea-pig pancreatic CCK1 receptors (Takinami et al., 1997); cited from earlier work
T6 construct: host or cells: guinea-pig pancreas
T6 sequence (Q63931 1-430): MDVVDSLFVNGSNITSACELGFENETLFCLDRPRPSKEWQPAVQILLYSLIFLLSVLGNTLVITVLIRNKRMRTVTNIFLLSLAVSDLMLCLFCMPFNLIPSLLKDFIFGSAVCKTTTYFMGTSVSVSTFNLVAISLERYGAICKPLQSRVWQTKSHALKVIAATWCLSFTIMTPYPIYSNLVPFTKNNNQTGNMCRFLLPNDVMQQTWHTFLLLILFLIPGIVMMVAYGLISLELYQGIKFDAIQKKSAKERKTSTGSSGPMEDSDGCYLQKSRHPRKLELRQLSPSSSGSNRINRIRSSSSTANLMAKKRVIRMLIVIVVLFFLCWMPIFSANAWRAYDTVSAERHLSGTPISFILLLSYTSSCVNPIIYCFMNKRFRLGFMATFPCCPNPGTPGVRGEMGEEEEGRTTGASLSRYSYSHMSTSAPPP

[2] = Canine CCK2, [125I]-BH-CCK-8S radiolabel, n = 3, ± s.e. mean
[3] = Human CCK1, [125I]-BH-CCK-8S radiolabel, n = 3, ± s.e. mean
[4] = Canine CCK1, CHO-K cells, [125I]-BH-CCK-8S radiolabel, n = 3, ± s.e. mean
[5] = Canine CCK2, [125I]-BH-CCK-8S radiolabel, n = 3, ± s.e. mean, read-out: pKI (affinity value, -log equilibrium dissociation constant) (converted)

nH (Hill slope) (canine CCK2 receptor; [2]) | Ki (canine CCK2 receptor; [5]) [nM] | Ki (human CCK1 receptor; Human CCK1, [125I]-BH-CCK-8S radiolabel, n = 3, ± s.e. mean, read-out: pKI (affinity value, -log equilibrium dissociation constant) (converted)) [nM] | Ki (canine CCK1 receptor; Canine CCK1, CHO-K cells, [125I]-BH-CCK-8S radiolabel, n = 3, ± s.e. mean, read-out: pKI (affinity value, -log equilibrium dissociation constant) (converted)) [nM] | Structure (SMILES) | Ki (canine CCK2 receptor) [nM] | fold higher affinity at the canine CCK2 receptor compared to the canine CCK1 receptor (canine CCK2 receptor) [fold] | nH (Hill slope) (Canine CCK1: Variant #1) | Ki (Canine CCK1: Variant #1) [nM] | Ki (human CCK1 receptor) [nM] | nH (Hill slope) (human CCK1 receptor; [3]) | Ki (canine CCK1 receptor) [nM] | nH (Hill slope) (canine CCK1 receptor; [4]) | nH (Hill slope) (Canine CCK1: Wild-type) | Ki (Canine CCK1: Wild-type) [nM] | reported pK1 value [1]
0.87 ± 0.06 | 24 |  |  | CN1C(=O)[C@@H](NC(=O)c2cc3ccccc3[nH]2)N=C(c2ccccc2)c2ccccc21 [L-364,718] |  |  |  |  |  |  |  |  |  |  | 
0.91 ± 0.10 | 1.05 | 13.5 | 12.3 | CNc1cccc(NC(=O)N[C@@H]2N=C(c3ccccn3)c3ccccc3N(CC(=O)C(C)(C)C)C2=O)c1 [YF476] |  | ~12 | 1.14 ± 0.37 | 15.1 |  | 0.95 ± 0.07 |  | 0.88 ± 0.08 | 0.60 ± 0.22 | 12 | ~6.5

Structure (SMILES) | nH (Hill slope) (canine CCK2 receptor; [2]) | Ki (canine CCK2 receptor; [5]) [nM] | Ki (human CCK1 receptor; Human CCK1, [125I]-BH-CCK-8S radiolabel, n = 3, ± s.e. mean, read-out: pKI (affinity value, -log equilibrium dissociation constant) (converted)) [nM] | Ki (canine CCK1 receptor; Canine CCK1, CHO-K cells, [125I]-BH-CCK-8S radiolabel, n = 3, ± s.e. mean, read-out: pKI (affinity value, -log equilibrium dissociation constant) (converted)) [nM] | Ki (canine CCK2 receptor) [nM] | fold higher affinity at the canine CCK2 receptor compared to the canine CCK1 receptor (canine CCK2 receptor) [fold] | nH (Hill slope) (Canine CCK1: Variant #1) | Ki (Canine CCK1: Variant #1) [nM] | Ki (human CCK1 receptor) [nM] | nH (Hill slope) (human CCK1 receptor; [3]) | Ki (canine CCK1 receptor) [nM] | nH (Hill slope) (canine CCK1 receptor; [4]) | nH (Hill slope) (Canine CCK1: Wild-type) | Ki (Canine CCK1: Wild-type) [nM] | reported pK1 value [1]
Cc1cccc(NC(=O)N[C@@H]2N=C(c3ccccc3)c3ccccc3N(C)C2=O)c1 [L-365,260, 3R(+)—N-(2,3-dihydro-1-methyl-2-oxo-5-phenyl-1H-1,4-benzodiazepin-3-yl)-N′-(3-methylphenyl)urea] | 0.95 ± 0.08 |  |  |  | 93.3 | ~2.6 | 1.08 ± 0.33 | 155 | 245 | 1.32 ± 0.14 | 245 | 1.17 ± 0.09 | 0.96 ± 0.32 | 219 | 
